Assay results taken from patent US7147872B2, “Environmentally compatible processes compositions and materials treated thereby” (Pimi Marion Holdings, Ltd., priority 1998, dated 2006).

Test system: potato seeds
Assay: Dry fog treatment of potato seeds to prevent sprouting, H2O2 with Ag and Cu ion (Example 19)
Type: in vivo
Settings: H2O2 500 PPM, Ag ion 0, Cu ion 0; 90% RH, 10° C.
Text: The results were as follows:

With `OO` [H2O2, hydrogen peroxide] the “Sprouting (%) one month” value was 8%, the “Sprouting (%) three months” value was 32% and the “Sprouting (%) two months” value was 22%.
